Results taken from patent US10517889B2, “Modulators of SMAD7 expression” (Ionis Pharmaceuticals, Inc., priority 2017, dated 2019).
Strand notation (5' to 3'): a small letter for the sugar, then the base; units joined by * are phosphorothioate-linked, units joined directly phosphodiester-linked; [ ] holds rarer units or linkages, { } end groups; capitals alone tell only the bases. k = constrained ethyl (cEt); [5mC] = 5-methylcytosine; d = 2'-deoxy (DNA)

tested on: human SMAD7 mRNA; assay: Antisense inhibition of human SMAD7 mRNA expression in Hep3B cells by 3-10-3 cEt gapmers, 10,000 nM, electroporation (Example 2); assay type: cell-based; conditions: SMAD7 mRNA, Hep3B cells, 10,000 nM antisense oligonucleotide, electroporation, approximately 24 hours, primer probe set RTS5062, relative to untreated control cells
Outline: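 SMAD7 mRNA was measured by real-time PCR (RTS5062) with RiboGreen total-RNA normalization, about 24 h after 10,000 nM gapmer was delivered by electroporation into Hep3B cells at 20,000 per well. Gapmers were 16-mer 3-10-3 cEt, fully phosphorothioate; values are % inhibition versus untreated controls.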

Point of comparison: “829784 (antisense kA*kG*kA*dT*d[5mC]*d[5mC]*dG*dG*d[5mC]*d[5mC]*dA*d[5mC]*d[5mC]*kT*kG*kA) [compound 829784]”, “% Inhibition” value 32%. Against it:
- 829772 (antisense kA*kG*kG*dA*d[5mC]*dG*dA*dG*dG*dG*d[5mC]*dG*dG*k[5mC]*kT*kG) [compound 829772] — higher, 52%
- 829773 (antisense kG*kT*kA*dG*dG*dA*d[5mC]*dG*dA*dG*dG*dG*d[5mC]*kG*kG*k[5mC]) [compound 829773] — higher, 50%
- 829774 (antisense kA*kG*kT*dA*dG*dG*dA*d[5mC]*dG*dA*dG*dG*dG*k[5mC]*kG*kG) [compound 829774] — lower, 22%
- 829775 (antisense k[5mC]*kG*kA*dG*dT*dA*dG*dG*dA*d[5mC]*dG*dA*dG*kG*kG*k[5mC]) [compound 829775] — higher, 59%
- 829777 (antisense kG*kA*kG*d[5mC]*dG*dA*dG*dT*dA*dG*dG*dA*d[5mC]*kG*kA*kG) [compound 829777] — higher, 37%
- 829778 (antisense kG*kG*kA*dG*d[5mC]*dG*dA*dG*dT*dA*dG*dG*dA*k[5mC]*kG*kA) [compound 829778] — higher, 46%
- 829779 (antisense kG*kG*kG*dA*dG*d[5mC]*dG*dA*dG*dT*dA*dG*dG*kA*k[5mC]*kG) [compound 829779] — higher, 58%
- 829780 (antisense k[5mC]*kG*kG*d[5mC]*d[5mC]*dA*d[5mC]*d[5mC]*dT*dG*dA*dA*d[5mC]*kA*k[5mC]*kT) [compound 829780] — higher, 37%
- 829781 (antisense k[5mC]*k[5mC]*kG*dG*d[5mC]*d[5mC]*dA*d[5mC]*d[5mC]*dT*dG*dA*dA*k[5mC]*kA*k[5mC]) [compound 829781] — lower, 31%
- 829782 (antisense kA*kT*k[5mC]*d[5mC]*dG*dG*d[5mC]*d[5mC]*dA*d[5mC]*d[5mC]*dT*dG*kA*kA*k[5mC]) [compound 829782] — higher, 36%
- 829783 (antisense kG*kA*kT*d[5mC]*d[5mC]*dG*dG*d[5mC]*d[5mC]*dA*d[5mC]*d[5mC]*dT*kG*kA*kA) [compound 829783] — higher, 52%
- 829785 (antisense kA*kT*kG*d[5mC]*d[5mC]*dT*dG*dA*dG*dA*dT*d[5mC]*d[5mC]*kG*kG*k[5mC]) [compound 829785] — lower, 27%
- 829786 (antisense kG*kA*kA*dT*dG*d[5mC]*d[5mC]*dT*dG*dA*dG*dA*dT*k[5mC]*k[5mC]*kG) [compound 829786] — higher, 56%
- 829787 (antisense kG*kG*kA*dA*dT*dG*d[5mC]*d[5mC]*dT*dG*dA*dG*dA*kT*k[5mC]*k[5mC]) [compound 829787] — lower, 30%
- 829788 (kT*k[5mC]*k[5mC]*dG*dA*dG*dG*dA*dA*dT*dG*d[5mC]*d[5mC]*kT*kG*kA; antisense) [compound 829788] — higher, 41%
- 829789 (kA*k[5mC]*kT*dT*d[5mC]*d[5mC]*dG*dA*dG*dG*dA*dA*dT*kG*k[5mC]*k[5mC]; antisense) [compound 829789] — higher, 42%
- 829790 (k[5mC]*k[5mC]*k[5mC]*dG*dT*dA*dA*dG*dA*dT*dT*d[5mC]*dA*k[5mC]*kA*kG; antisense) [compound 829790] — higher, 51%
- 829791 (kT*kT*k[5mC]*d[5mC]*d[5mC]*dG*dT*dA*dA*dG*dA*dT*dT*k[5mC]*kA*k[5mC]; antisense) [compound 829791] — higher, 38%
- 829792 (k[5mC]*kT*kT*d[5mC]*d[5mC]*d[5mC]*dG*dT*dA*dA*dG*dA*dT*kT*k[5mC]*kA; antisense) [compound 829792] — higher, 39%
- 829793 (kT*k[5mC]*kT*dT*d[5mC]*d[5mC]*d[5mC]*dG*dT*dA*dA*dG*dA*kT*kT*k[5mC]; antisense) [compound 829793] — higher, 41%
- 829794 (kG*kA*kT*d[5mC]*dT*dT*d[5mC]*d[5mC]*d[5mC]*dG*dT*dA*dA*kG*kA*kT; antisense) [compound 829794] — lower, 24%
